Assay results: patent US8802597B2, “Herbicidal pyrimidines” (E I du Pont de Nemours and Company, priority 2003, dated 2014)

How the values were obtained:
Type in all cases: in vivo
[1] = system: barnyardgrass (Echinochloa crus-galli); assay: Test A pre/postemergence
Procedure, shortened: (§1)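 Seeds sown in loam–sand blend received a preemergence directed soil spray of test chemical in non-phytotoxic solvent with surfactant; same-formulation postemergence spray given concurrently to plants 2–10 cm tall at 1- to 2-leaf stage. Greenhouse ~ten days, then visual injury rating versus untreated controls, 0 (no effect) to 100 (complete control).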

[2] = system: crabgrass (Digitaria sanguinalis); assay: Test A pre/postemergence
Procedure, shortened: as §1

[3] = system: giant foxtail (Setaria faberi); assay: Test A pre/postemergence
Procedure, shortened: as §1

[4] = system: morningglory (Ipomoea spp.); assay: Test A pre/postemergence
Procedure, shortened: as §1

[5] = system: redroot pigweed (Amaranthus retroflexus); assay: Test A pre/postemergence
Procedure, shortened: as §1

[6] = system: velvetleaf (Abutilon theophrasti); assay: Test A pre/postemergence
Procedure, shortened: as §1

[7] = system: barnyardgrass (Echinochloa crus-galli); assay: Test E flooded paddy water application; conditions: Flood, 21 days, scale 0 to 100 (0 no effect, 100 complete control)
Procedure, shortened: (§2)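 Response scored visually on a 0–100 scale (100 = complete control) at 21 days against untreated pots. Treatment was into paddy water 3 cm deep over silt loam, with plants at the 2.0–2.5-leaf stage, grown under 16-h light at 29.5/26.7 °C day/night.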

[8] = system: bearded (brdd.) sprangletop (Leptochloa fusca ssp. fascicularis); assay: Test E flooded paddy water application; conditions: Flood, 21 days, scale 0 to 100 (0 no effect, 100 complete control)
Procedure, shortened: as §2

[9] = system: ducksalad (Heteranthera limosa); assay: Test E flooded paddy water application; conditions: Flood, 21 days, scale 0 to 100 (0 no effect, 100 complete control)
Procedure, shortened: as §2

[10] = system: early watergrass (Echinochloa oryzoides); assay: Test E flooded paddy water application; conditions: Flood, 21 days, scale 0 to 100 (0 no effect, 100 complete control)
Procedure, shortened: as §2

[11] = system: junglerice (Echinochloa colona); assay: Test E flooded paddy water application; conditions: Flood, 21 days, scale 0 to 100 (0 no effect, 100 complete control)
Procedure, shortened: as §2

[12] = system: late watergrass (Echinochloa oryzicola); assay: Test E flooded paddy water application; conditions: Flood, 21 days, scale 0 to 100 (0 no effect, 100 complete control)
Procedure, shortened: as §2

[13] = system: purple redstem (Ammannia coccinea); assay: Test E flooded paddy water application; conditions: Flood, 21 days, scale 0 to 100 (0 no effect, 100 complete control)
Procedure, shortened: as §2

[14] = system: rice flatsedge (Cyperus iria); assay: Test E flooded paddy water application; conditions: Flood, 21 days, scale 0 to 100 (0 no effect, 100 complete control)
Procedure, shortened: as §2

[15] = system: smallflower umbrella sedge (Cyperus difformis); assay: Test E flooded paddy water application; conditions: Flood, 21 days, scale 0 to 100 (0 no effect, 100 complete control)
Procedure, shortened: as §2

[16] = system: transplanted rice seedlings (Oryza sativa cv. ‘Japonica-M202’); assay: Test E flooded paddy water application; conditions: Flood, 21 days, scale 0 to 100 (0 no effect, 100 complete control)
Procedure, shortened: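 Greenhouse pots of Tama silt loam with weeds and rice at 2.0–2.5-leaf stage, flooded to 3 cm; compounds applied directly into paddy water, depth maintained. Visual rating versus untreated controls after 21 days, 0 (no effect) to 100 (complete control); 29.5/26.7 °C, 16-h photoperiod.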

[17] = system: water seeded rice seedlings (Oryza sativa cv. ‘Japonica-M202’); assay: Test E flooded paddy water application; conditions: Flood, 21 days, scale 0 to 100 (0 no effect, 100 complete control)
Procedure, shortened: as §2

[18] = Postemergence, 125 g ai/ha, 0 to 100 scale (0 no effect, 100 complete control)
[19] = Postemergence, 500 g ai/ha, 0 to 100 scale (0 no effect, 100 complete control)
[20] = Preemergence, 125 g ai/ha, 0 to 100 scale where 0 is no effect and 100 is complete control, approximately ten days
[21] = Preemergence, 500 g ai/ha, 0 to 100 scale where 0 is no effect and 100 is complete control, approximately ten days

COC(=O)c1nc(-c2ccc(C)cc2)nc(N)c1Cl [Compound 84]
25: Plant response rating, Barnyardgrass [1, 21] | Plant response rating, Flatsedge, Rice ([14]; 16 g ai/ha)
85: Barnyardgrass plant response rating ([7]; 250 g ai/ha)
15: Plant response rating, Crabgrass [2, 21] | Plant response rating, Velvetleaf [6, 20]
75: Plant response rating, Velvetleaf [6, 18]
90: Plant response rating, Velvetleaf [6, 19] | Sedge, Umbrella plant response rating ([15]; 125 g ai/ha)
20: Plant response rating, Foxtail, Giant [3, 19] | Plant response rating, Foxtail, Giant [3, 21] | Plant response rating, Morningglory [4, 19] | Barnyardgrass plant response rating ([7]; 125 g ai/ha) | Watergrass, Early plant response rating ([10]; 125 g ai/ha) | Watergrass, Late plant response rating ([12]; 250 g ai/ha) | Redstem plant response rating ([13]; 32 g ai/ha) | Redstem plant response rating ([13]; 64 g ai/ha) | Rice, Transplanted plant response rating ([16]; 250 g ai/ha)
100: Ducksalad plant response rating ([9]; 32 g ai/ha) | Ducksalad plant response rating ([9]; 64 g ai/ha) | Ducksalad plant response rating ([9]; 125 g ai/ha) | Ducksalad plant response rating ([9]; 250 g ai/ha) | Plant response rating, Ducksalad ([9]; 16 g ai/ha) | Redstem plant response rating ([13]; 250 g ai/ha) | Sedge, Umbrella plant response rating ([15]; 250 g ai/ha)
5: Plant response rating, Morningglory [4, 18]
80: Plant response rating, Barnyardgrass [1, 19] | Plant response rating, Pigweed [5, 21] | Flatsedge, Rice plant response rating ([14]; 250 g ai/ha) | Sedge, Umbrella plant response rating ([15]; 32 g ai/ha) | Sedge, Umbrella plant response rating ([15]; 64 g ai/ha)
0: Plant response rating, Barnyardgrass [1, 20] | Plant response rating, Crabgrass [2, 18] | Plant response rating, Crabgrass [2, 20] | Plant response rating, Foxtail, Giant [3, 18] | Plant response rating, Foxtail, Giant [3, 20] | Plant response rating, Morningglory [4, 20] | Plant response rating, Morningglory [4, 21] | Plant response rating, Pigweed [5, 20] | Barnyardgrass plant response rating ([7]; 32 g ai/ha) | Barnyardgrass plant response rating ([7]; 64 g ai/ha) | Plant response rating, Barnyardgrass ([7]; 16 g ai/ha) | Sprangletop, Brdd. plant response rating ([8]; 32 g ai/ha) | Sprangletop, Brdd. plant response rating ([8]; 64 g ai/ha) | Sprangletop, Brdd. plant response rating ([8]; 125 g ai/ha) | Plant response rating, Sprangletop, Brdd. ([8]; 16 g ai/ha) | Watergrass, Early plant response rating ([10]; 32 g ai/ha) | Plant response rating, Watergrass, Early ([10]; 16 g ai/ha) | Junglerice plant response rating ([11]; 32 g ai/ha) | Junglerice plant response rating ([11]; 64 g ai/ha) | Plant response rating, Junglerice ([11]; 16 g ai/ha) | Watergrass, Late plant response rating ([12]; 32 g ai/ha) | Watergrass, Late plant response rating ([12]; 64 g ai/ha) | Watergrass, Late plant response rating ([12]; 125 g ai/ha) | Plant response rating, Watergrass, Late ([12]; 16 g ai/ha) | Plant response rating, Redstem ([13]; 16 g ai/ha) | Rice, Transplanted plant response rating ([16]; 32 g ai/ha) | Rice, Transplanted plant response rating ([16]; 64 g ai/ha) | Rice, Transplanted plant response rating ([16]; 125 g ai/ha) | Plant response rating, Rice, Transplanted ([16]; 16 g ai/ha) | Rice, Water Seeded plant response rating ([17]; 32 g ai/ha) | Rice, Water Seeded plant response rating ([17]; 64 g ai/ha) | Rice, Water Seeded plant response rating ([17]; 125 g ai/ha) | Plant response rating, Rice, Water Seeded ([17]; 16 g ai/ha)
35: Flatsedge, Rice plant response rating ([14]; 32 g ai/ha)
50: Junglerice plant response rating ([11]; 125 g ai/ha) | Junglerice plant response rating ([11]; 250 g ai/ha)
30: Watergrass, Early plant response rating ([10]; 250 g ai/ha) | Rice, Water Seeded plant response rating ([17]; 250 g ai/ha)
10: Plant response rating, Crabgrass [2, 19] | Watergrass, Early plant response rating ([10]; 64 g ai/ha)
60: Plant response rating, Pigweed [5, 18] | Flatsedge, Rice plant response rating ([14]; 64 g ai/ha) | Flatsedge, Rice plant response rating ([14]; 125 g ai/ha)
70: Plant response rating, Velvetleaf [6, 21] | Redstem plant response rating ([13]; 125 g ai/ha) | Plant response rating, Sedge, Umbrella ([15]; 16 g ai/ha)
40: Sprangletop, Brdd. plant response rating ([8]; 250 g ai/ha)
55: Plant response rating, Barnyardgrass [1, 18]
65: Plant response rating, Pigweed [5, 19]
